This is an account of results in US12661410B2, “Compounds for targeted degradation of RET” (C4 Therapeutics, Inc., priority 2020, dated 2026).

Substitutions are numbered along the chain they refer to. Read-outs that look alike come from different tables or passages of the source.

The term Emax denotes the greatest response seen or fitted, relative to the assay's reference. By DC50 is commonly meant the midpoint of the concentration-degradation curve.

One experiment concerns the target T1, RET (658-1114) (Homo sapiens, UniProt P07949).
T1 construct: 658-1114; expressed in transfected cells; host or cells: 293T.144 (293T cells, generated in-house)
T1 sequence (P07949 658-1114): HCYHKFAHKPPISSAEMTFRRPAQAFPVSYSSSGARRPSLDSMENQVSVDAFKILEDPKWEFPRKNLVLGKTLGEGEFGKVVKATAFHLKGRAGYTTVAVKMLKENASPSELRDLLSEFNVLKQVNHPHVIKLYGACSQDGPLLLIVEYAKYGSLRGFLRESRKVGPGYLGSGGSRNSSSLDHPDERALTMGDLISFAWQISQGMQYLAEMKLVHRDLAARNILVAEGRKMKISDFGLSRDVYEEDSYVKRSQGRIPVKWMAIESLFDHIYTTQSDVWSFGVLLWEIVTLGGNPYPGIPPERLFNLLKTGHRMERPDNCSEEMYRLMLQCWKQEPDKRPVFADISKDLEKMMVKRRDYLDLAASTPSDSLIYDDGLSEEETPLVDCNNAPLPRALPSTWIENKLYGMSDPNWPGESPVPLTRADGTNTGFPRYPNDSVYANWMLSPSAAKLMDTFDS
Nature of the experiment: HiBiT-Degradation, RET wild-type degradation assay (Nano-Glo HiBiT Lytic), 293T.144 cells. The format is cell-based. As to conditions: for Emax / DC50: 6.0 hours; for Emax: read-out: 293T.144 RET (658-1114) 6.0 hours (Emax); for DC50: read-out: 293T.144 RET (658-1114) 6.0 hours (DC50). Summed up:
(§1)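 HEK293T lines stably expressing HiBiT-tagged RET kinase domain (WT: 293T.144; G810R: 293T.165) were treated with degraders for 6 h in duplicate, 11-point half-log series from 10 μM top dose. Lysis with Nano-Glo HiBiT Lytic reagent, luminescence read; DC50 and Emax (% remaining protein) derived from dose-response curves.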

For a further experiment, the target named is T2, RET(KD: 658-1114 G810R) (Homo sapiens, UniProt P07949, G810R).
T2 construct: 658-1114; expressed in transfected cells; host or cells: 293T.165 (293T cells, generated in-house)
T2 sequence (P07949 658-1114 G810R): T1 sequence (P07949 658-1114) with G153R
Nature of the experiment: HiBiT-Degradation, RET G810R degradation assay (Nano-Glo HiBiT Lytic), 293T.165 cells. The format is cell-based. As to conditions: for Emax / DC50: 6.0 hours; for Emax: % remaining protein, read-out: 293T.165 RET(KD: 658-1114 G810R) 6.0 hours (Emax); for DC50: read-out: 293T.165 RET(KD: 658-1114 G810R) 6.0 hours (DC50). Summed up: as §1
For orientation: With HiBiT, luminescence reflects the tagged protein that the partner subunit can reach.

[1] abbreviates: half-maximal degradation concentration.

Regarding `N#Cc1cnn2cc(-c3cnn(C4CCN(C(=O)CC5(O)CCN(c6ccc(NC7CCC(=O)NC7=O)cc6F)CC5)CC4)c3)nc(-c3ccc(N4CC5CC(C4)N5Cc4ccccc4)nc3)c12` (centres unmarked) [Compound 176, 4-(6-(6-benzyl-3,6-diazabicyclo[3.1.1]heptan-3-yl)pyridin-3-yl)-6-(1-(1-(2-(1-(4-((2,6-dioxopiperidin-3-yl)amino)-2-fluorophenyl)-4-hydroxypiperidin-4-yl)acetyl)piperidin-4-yl)-1H-pyrazol-4-yl)pyrazolo[1,5-a]pyrazine-3-carbonitrile], the “293T.144 RET (658-1114) 6.0 hours (IP) [nM]” value (“293T.144 RET” for short) at RET (658-1114) is given as “++++ (<50 nM = ++++)”. The Emax on RET (658-1114) (% remaining protein) and on RET(KD: 658-1114 G810R) was < 30% each time. Further, the DC50 on RET (658-1114) (setting [1]) and at RET(KD: 658-1114 G810R) (setting [1]) was < 50 nM each time. Moreover, at RET(KD: 658-1114 G810R), the “293T.165 RET(KD: 658-1114 G810R) 6.0 hours (IP) [nM]” value is listed as “++++ (<50 nM = ++++)”.

Consider `COc1cc(N2CCN([C@H]3CC[C@H](n4cc(-c5cn6ncc(C#N)c6c(-c6ccc(N7C[C@H]8COC[C@@H](C7)N8CC7CCOCC7)nc6)n5)cn4)CC3)CC2)c(F)cc1NC1CCC(=O)NC1=O` (single isomer, unassigned) [Compound 166], for which, on RET (658-1114), the “293T.144 RET” value is “++++ (<50 nM = ++++)”. Also, the Emax on RET (658-1114) (% remaining protein) and on RET(KD: 658-1114 G810R) was < 30% throughout. The DC50 on RET (658-1114) (setting [1]) was < 50 nM; on RET(KD: 658-1114 G810R) (setting [1]), < 100 nM. Besides, the “293T.165 RET(KD: 658-1114 G810R) 6.0 hours (IP) [nM]” value at RET(KD: 658-1114 G810R) is recorded as “++++ (<50 nM = ++++)”.

With `CC(=O)N1CCN(c2ccc(-c3cc(-c4ccc(N5CCN(C(=O)CN6CCC(c7ccc(NC8CCC(=O)NC8=O)cc7)CC6)CC5)cc4)cn4ncc(C#N)c34)cn2)CC1` (centres unmarked) [Compound 41, 4-[6-(4-acetylpiperazin-1-yl)-3-pyridyl]-6-[4-[4-[2-[4-[4-[(2,6-dioxo-3-piperidyl)amino]phenyl]-1-piperidyl]acetyl]piperazin-1-yl]phenyl]pyrazolo[1,5-a]pyridine-3-carbonitrile], on RET (658-1114) (HiBiT-Degradation), the “293T.144 RET” value was “++++ (< 50 nM = ++++)”, the DC50 was < 50 nM and the Emax was < 30%. In addition, the Emax at RET(KD: 658-1114 G810R) was < 50%. Besides, on RET(KD: 658-1114 G810R) (setting [1]), the DC50 was < 100 nM. On RET(KD: 658-1114 G810R) (HiBiT-Degradation), the “293T.165 RET(KD: 658-1114 G810R) 6.0 hours (Emax)” value is recorded as “+++ (<50% = +++)”, the “293T.165 RET(KD: 658-1114 G810R) 6.0 hours (IP) [nM]” value was “++++ (< 50 nM = ++++)” and the DC50 was < 100 nM.

Take `CCC1(C(=O)NC(C)C)CCN(c2ncc(-c3nc(-c4cnn(C5CCN(C(=O)CC6(O)CCN(c7ccc(NC8CCC(=O)NC8=O)cc7Cl)CC6)CC5)c4)cn4ncc(C#N)c34)cc2F)CC1` (centres unmarked) [Compound 120, 1-[5-[6-[1-[1-[2-[1-[2-chloro-4-[(2,6-dioxo-3-piperidyl)amino]phenyl]-4-hydroxy-4-piperidyl]acetyl]-4-piperidyl]pyrazol-4-yl]-3-cyano-pyrazolo[1,5-a]pyrazin-4-yl]-3-fluoro-2-pyridyl]-4-ethyl-N-isopropyl-piperidine-4-carboxamide]: on RET (658-1114), the “293T.144 RET” value is “++++ (<50 nM = ++++)”. In addition, the values for the maximum response (Emax) at RET (658-1114) (% remaining protein) and on RET(KD: 658-1114 G810R) were < 30% and < 50%, respectively. Moreover, the results for the 50% degradation concentration (DC50) at RET (658-1114) (setting [1]) and on RET(KD: 658-1114 G810R) (setting [1]) were < 50 nM and < 100 nM, respectively. In addition, the “293T.165 RET(KD: 658-1114 G810R) 6.0 hours (IP) [nM]” value at RET(KD: 658-1114 G810R) is “++++ (<50 nM = ++++)”.

`CCC1(C(=O)NC(C)C)CCN(c2ccc(-c3cc(-c4cnn([C@H]5CC[C@H](N6CCC(c7ccc(N[C@H]8CCC(=O)NC8=O)cc7F)CC6)CC5)c4)cn4ncc(C#N)c34)cn2)CC1` (single isomer, unassigned) [Compound 194]: the “293T.144 RET” value on RET (658-1114) is “++++ (<50 nM = ++++)”. The Emax on RET (658-1114) (% remaining protein) and at RET(KD: 658-1114 G810R) was < 30% throughout. The 50% degradation concentration (DC50) on RET (658-1114) (setting [1]) and on RET(KD: 658-1114 G810R) (setting [1]) was < 50 nM throughout. Further, the “293T.165 RET(KD: 658-1114 G810R) 6.0 hours (IP) [nM]” value at RET(KD: 658-1114 G810R) is on record as “++++ (<50 nM = ++++)”.
